The source of these data is PMC8231170, “Biphenylalkoxyamine Derivatives–Histamine H3 Receptor Ligands with Butyrylcholinesterase Inhibitory Activity” (Molecules, 2021).

One test addresses T1, human MAO B (Homo sapiens, UniProt P27338).
T1 construct: purchased Sigma Aldrich M7441
T1 sequence (P27338 1-520): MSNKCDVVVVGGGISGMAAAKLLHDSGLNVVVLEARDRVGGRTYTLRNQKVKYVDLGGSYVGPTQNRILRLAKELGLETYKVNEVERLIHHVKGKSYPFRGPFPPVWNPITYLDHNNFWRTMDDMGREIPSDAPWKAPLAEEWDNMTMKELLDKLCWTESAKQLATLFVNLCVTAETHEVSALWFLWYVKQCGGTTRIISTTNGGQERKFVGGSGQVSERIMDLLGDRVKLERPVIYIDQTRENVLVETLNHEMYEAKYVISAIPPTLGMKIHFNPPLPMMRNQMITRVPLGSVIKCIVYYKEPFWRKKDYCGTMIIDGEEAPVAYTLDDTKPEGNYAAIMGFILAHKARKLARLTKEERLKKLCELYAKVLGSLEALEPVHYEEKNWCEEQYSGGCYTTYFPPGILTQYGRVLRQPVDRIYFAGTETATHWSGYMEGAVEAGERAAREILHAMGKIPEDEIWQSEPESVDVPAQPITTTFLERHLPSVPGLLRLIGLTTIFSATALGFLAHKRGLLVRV
The test is described as follows: fluorometric Monoamine Oxidase assay. In kind it is biochemical. Conditions: at 1 μM; read-out: hMAO B %Inh. (converted). How it is done: Inhibition of human MAO B (hMAO B) was evaluated using a fluorometric Monoamine Oxidase assay as we described previously.
Inhibition of hMAO B was evaluated using fluorometric Monoamine Oxidase assay as described by Łażewska et al.. Recombinant MAO B was purchased from Sigma Aldrich (M7441). […] The assay was carried out in 96-well plate. Tested compounds dissolved in DMSO (1 μM) were added to wells that contained 98 µL of enzyme dilution (1 µg/well) in phosphate buffer (50 mM, pH 7.4). […] An enzymatic reaction started following addition of para-tyramine solution (200 μM). […] Each experiment was performed in duplicate.

Another test concerns the target T2, BuChE from equine serum (Equus caballus, UniProt P81908).
T2 construct: AChE was obtained from electric eel and BuChE from equine serum; purchased Sigma Aldrich; host or cells: equine serum (natural source)
Briefly: eqBuChE inhibition, Ellman's method. Conditions: BuChE from equine serum; read-out: eqBuChE IC50 Mean ± SEM. In kind it is biochemical. How it is done:
The inhibitory activities of the tested compounds against cholinesterases were evaluated by Ellman’s method. AChE was obtained from electric eel and BuChE from equine serum. […] Inhibitory activities of the tested compounds against cholinesterases were measured using a spectrophotometric method modified for 96-well microplates as described recently.
First, all compounds were screened at the concentration of 10 μM. […] Then, the percent of inhibition of tested enzymes for each compound was calculated. […] Each concentration was measured in triplicate. All calculations were made using nonlinear regression GraphPad Prism 5 (GraphPad Software, San Diego, CA, USA).
(DTNB colorimetry detects thiols as they appear.)

In another test the target is T3, AChE from electric eel (Electrophorus electricus, UniProt O42275).
T3 construct: AChE was obtained from electric eel and BuChE from equine serum; purchased Sigma Aldrich; host or cells: electric eel (natural source)
T3 sequence (O42275 24-633): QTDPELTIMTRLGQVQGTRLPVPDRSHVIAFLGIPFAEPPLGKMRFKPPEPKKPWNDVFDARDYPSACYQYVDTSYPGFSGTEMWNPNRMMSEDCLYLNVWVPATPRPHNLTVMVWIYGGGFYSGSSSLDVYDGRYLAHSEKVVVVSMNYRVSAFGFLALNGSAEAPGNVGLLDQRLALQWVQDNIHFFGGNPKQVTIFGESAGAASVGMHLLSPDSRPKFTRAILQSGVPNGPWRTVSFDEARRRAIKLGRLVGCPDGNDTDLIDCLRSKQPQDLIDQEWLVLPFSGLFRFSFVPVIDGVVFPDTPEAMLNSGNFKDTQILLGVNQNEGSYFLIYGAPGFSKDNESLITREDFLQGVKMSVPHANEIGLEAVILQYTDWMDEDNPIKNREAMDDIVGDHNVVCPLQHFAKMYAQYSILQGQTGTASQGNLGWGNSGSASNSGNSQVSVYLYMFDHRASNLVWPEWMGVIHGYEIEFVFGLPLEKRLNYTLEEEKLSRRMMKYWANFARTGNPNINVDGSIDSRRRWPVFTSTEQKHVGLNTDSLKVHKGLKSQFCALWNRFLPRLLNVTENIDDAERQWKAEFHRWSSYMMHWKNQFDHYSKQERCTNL
Briefly: eeAChE inhibition, Ellman's method. In kind it is biochemical. Conditions: for IC50: AChE from electric eel, read-out: eeAChE IC50 Mean ± SEM; for inhibition at 10 µM: read-out: eeAChE % Inh. How it is done: The inhibitory activities of the tested compounds against cholinesterases were evaluated by Ellman’s method. AChE was obtained from electric eel and BuChE from equine serum. Donepezil and rivastigmine were used as reference compounds. […]. Inhibitory activities of the tested compounds against cholinesterases were measured using a spectrophotometric method modified for 96-well microplates as described recently.
[…]. First, all compounds were screened at the concentration of 10 μM. The changes in absorbance were measured at 412 nm, using a microplate reader (EnSpire Multimode; PerkinElmer, Waltham, MA, USA). Then, the percent of inhibition of tested enzymes for each compound was calculated. […] Each concentration was measured in triplicate. All calculations were made using nonlinear regression GraphPad Prism 5 (GraphPad Software, San Diego, CA, USA).

In test [1] the target is T4, human histamine H3 receptor (Homo sapiens, UniProt Q9Y5N1).
T4 construct: expressed in transfected cells; host or cells: HEK293
T4 sequence (Q9Y5N1 whole entry): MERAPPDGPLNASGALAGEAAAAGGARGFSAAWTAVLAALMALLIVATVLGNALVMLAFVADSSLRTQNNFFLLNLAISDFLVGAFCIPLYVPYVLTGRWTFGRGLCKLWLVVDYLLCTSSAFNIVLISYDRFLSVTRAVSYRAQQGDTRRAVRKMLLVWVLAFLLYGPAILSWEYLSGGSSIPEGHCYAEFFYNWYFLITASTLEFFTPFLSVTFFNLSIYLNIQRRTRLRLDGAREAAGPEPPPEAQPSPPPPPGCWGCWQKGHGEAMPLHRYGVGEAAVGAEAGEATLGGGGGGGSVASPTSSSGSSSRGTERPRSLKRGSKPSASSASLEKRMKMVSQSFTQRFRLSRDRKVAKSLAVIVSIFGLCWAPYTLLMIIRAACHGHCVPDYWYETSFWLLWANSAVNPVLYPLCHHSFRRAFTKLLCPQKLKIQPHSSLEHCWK
Conditions: cited from earlier work; for Ki: read-out: hH3R Ki Mean ± SD [CI 95%], [3H]Nα-methylhistamine, HEK293 cells stably expressing human H3R.

The target of test [2] is T4, human histamine H3 receptor. Briefly: hH3R radioligand binding assay ([3H]Nα-methylhistamine). How it is done: Affinity to human histamine H3 receptor stably expressed in HEK293 cells was evaluated in a radioligand binding assay with N^α-methylhistamine according to the previous procedure. […] The bound radioligand was separated from the free radioligand by filtration through GF/B filters (pretreated with 0.3% (m/v) polyethylenimine) using Inotech cell harvester (Dottikin, Switzerland). Unbound radioligand was removed by three washing steps with ice-cold water. The radioactivity was determined in a liquid scintillation counter (Perkin Elmer Trilux Betacounter, Germany). Scintillation data corrected for non-specific binding were analyzed using GraphPad Prism (V6.01, San Diego, CA, USA) software. Ki values were calculated from IC50 values (from at least three experiments, performed in duplicates) according to the Cheng–Prusoff equation [29].

Test [3] relates to mouse model of scopolamine-induced memory impairments. Briefly: step-through Passive Avoidance Task. Conditions: mice; for latency times, acquisition trial: i.p. In kind it is in vivo. The method, then:
This procedure was created for studying short-term memory as well as long-term memory. The paradigm requires the rodents to behave contrary to their innate preference for dark areas and for avoiding bright ones.
The experiments were carried out on adult male Albino Swiss mice (CD-1, 18–25 g). […] Experimental groups consisted of 6–12 animals, all the animals were used only once and they were killed by cervical dislocation immediately after the assay. Behavioral measures were scored by trained observers, which were blind to experimental conditions. Treatment of laboratory animals in the present study was in full accordance with the respective Polish regulations.
Control animals (negative control) were given an appropriate amount of vehicle (1% aqueous solution of Tween 80; i.p.) 30 min before the test.
The task was performed according to the method described previously. Briefly, the test was conducted in the apparatus with two compartments (LE872, Bioseb, France). The illuminated white compartment (20 cm × 21 cm × 20 cm, 1000 lx) was separated by an automated sliding gate with the smaller dark compartment (7.3 cm × 7.5 cm × 14 cm, 10 lx) equipped with an electric grid floor. For acquisition session, mice were first placed individually in the white compartment and after 30 s the gate to the smaller compartment was opened. Immediately after entering into the dark compartment, the gate was closed and the mouse was punished by an unavoidable electric foot shock (0.8 mA for 2 s). […] Next day (24 h later), the pretested animals were placed again into the bright compartment. […] The latency time to cross through the gate between the compartments was measured.

Test [4] deals with human butyrylcholineserase. Conditions: read-out: hBuChE IC50; cited from earlier work.
Setting [5] is: [3H]Nα-methylhistamine, HEK293 cells stably expressing human H3R, read-out: hH3R Ki Mean ± SD [CI 95%].

Counter-ions that a name gives are not always drawn. Like-named read-outs stand apart in the source and are kept apart here.

T2 sequence (P81908 whole entry): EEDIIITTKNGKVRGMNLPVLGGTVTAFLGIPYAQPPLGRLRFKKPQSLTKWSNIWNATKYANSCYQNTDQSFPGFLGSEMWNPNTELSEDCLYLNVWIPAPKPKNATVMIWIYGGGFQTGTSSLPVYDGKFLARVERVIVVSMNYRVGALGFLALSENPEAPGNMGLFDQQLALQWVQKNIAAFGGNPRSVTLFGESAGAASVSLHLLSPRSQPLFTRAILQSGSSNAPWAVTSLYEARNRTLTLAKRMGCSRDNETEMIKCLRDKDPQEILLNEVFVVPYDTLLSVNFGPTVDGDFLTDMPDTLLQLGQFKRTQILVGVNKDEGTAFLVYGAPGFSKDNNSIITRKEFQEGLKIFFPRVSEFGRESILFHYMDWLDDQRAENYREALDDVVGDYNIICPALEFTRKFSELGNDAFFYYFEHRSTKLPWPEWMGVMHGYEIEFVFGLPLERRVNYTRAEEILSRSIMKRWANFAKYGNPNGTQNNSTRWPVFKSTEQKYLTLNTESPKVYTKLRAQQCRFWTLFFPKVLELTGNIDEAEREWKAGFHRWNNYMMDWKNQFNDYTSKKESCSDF

With `c1ccc(-c2cccc(OCCCCCCN3CCCCCC3)c2)cc1` [Compound 21], the inhibition at 1 µM at human MAO B is 43%. Besides, the 50% inhibitory concentration (IC50) on BuChE from equine serum was determined as 870 nM; at AChE from electric eel, 3860 ± 80 nM. Further, the inhibition at 10 µM on AChE from electric eel was above 50%. Also, the inhibition constant Ki in test [1] is 19 ± 5.5 nM.
Regarding `CNCCc1cnc[nH]1` [[^3H]N^α-methylhistamine, reference compound], the Kd in test [1] (hH3R stably expressed in HEK293 cells, read-out: KD of radioligand at hH3R) was 3.08 nM.
On to `c1ccc(-c2ccc(OCCCCCCN3CCCCC3)cc2)cc1` [Compound 8], for which the inhibition at 1 µM on human MAO B is 36%. For the same compound, the half-maximal inhibitory concentration (IC50) at BuChE from equine serum came out at 1630 ± 50 nM. At AChE from electric eel, the inhibition at 10 µM was 48%.
Consider `CC1CCCN(CCCCCCOc2cccc(-c3ccccc3)c2)C1` (centres unmarked) [Compound 14, 1-(6-([1,1′-Biphenyl]-3-yloxy)hexyl)-3-methylpiperidine Hydrogen Oxalate], for which, on human MAO B, the inhibition at 1 µM was 35%. Further, on BuChE from equine serum, the IC50 is 1520 ± 40 nM. Moreover, on AChE from electric eel, the concentration for half-maximal inhibition (IC50) was determined as 4710 ± 130 nM and the inhibition at 10 µM was above 50%. Besides, the Ki in test [2] worked out at 27 nM.
`CC1CCCN(CCCCCOc2cccc(-c3ccccc3)c2)C1` (centres unmarked) [Compound 12, 1-(5-([1,1′-Biphenyl]-3-yloxy)pentyl)-3-methylpiperidine Hydrogen Oxalate]: on human MAO B, the inhibition at 1 µM is 5%. Moreover, at BuChE from equine serum, the IC50 is 680 ± 10 nM. In addition, the inhibition at 10 µM at AChE from electric eel worked out at 27%. Further, affinity in test [2] was put at a Ki of 45 ± 13.4 nM.
Consider `Clc1ccc(CCCOCCCN2CCCCC2)cc1` [Pitolisant, reference compound], for which the inhibition at 1 µM at human MAO B was 2%.
With `CC1CCN(CCCCCCOc2cccc(-c3ccccc3)c2)CC1` [Compound 17], the inhibition at 1 µM at human MAO B is 5%. Also, the IC50 on BuChE from equine serum was 1490 ± 40 nM. Also, the inhibition at 10 µM at AChE from electric eel turned out to be 48%. Moreover, the Ki in test [1] is 172 ± 73 nM.
`CN1[C@@H]2C[C@@H](OC(=O)[C@H](CO)c3ccccc3)C[C@H]1[C@@H]1O[C@@H]12` [Scopolamine, scopolamine, reference compound]: the “latency times, acquisition trial” value in test [3] was “neither scopolamine, nor 19 nor rivastigmine significantly affected latency times”.
Take `c1ccc(-c2ccccc2OCCCCCCN2CCCCCC2)cc1` [Compound 22, 1-(6-([1,1′-Biphenyl]-2-yloxy)hexyl)azepane Hydrogen Oxalate]: the inhibition at 1 µM at human MAO B is 17%. In addition, the concentration for half-maximal inhibition (IC50) on BuChE from equine serum worked out at 690 ± 50 nM. Also, the inhibition at 10 µM at AChE from electric eel was determined as 30%. This compound also had a Ki in test [2] of 528 nM.
For the compound `CC1CCCN(CCCCCOc2ccc(-c3ccccc3)cc2)C1` (centres unmarked) [Compound 11, 1-(5-([1,1′-Biphenyl]-4-yloxy)pentyl)-3-methylpiperidine Hydrogen Oxalate], on human MAO B, the inhibition at 1 µM was 28%. The IC50 at BuChE from equine serum was 910 ± 10 nM. Moreover, at AChE from electric eel, the inhibition at 10 µM is 45%. For the same compound, the inhibition constant (Ki) in test [2] (setting [5]) turned out to be 27.3 ± 15.1 nM.
For `CC1CCN(CCCCCCOc2ccccc2-c2ccccc2)CC1` [Compound 18, 1-(6-([1,1′-Biphenyl]-2-yloxy)hexyl)-4-methylpiperidine Hydrogen Oxalate], at human MAO B, the inhibition at 1 µM was 24%. For the same compound, at BuChE from equine serum, the concentration for half-maximal inhibition (IC50) was 1480 ± 40 nM. For the same compound, on AChE from electric eel, the inhibition at 10 µM turned out to be 20%. This compound also returned a Ki in test [2] of 561 nM.
Consider `c1ccc(-c2ccc(OCCCCCN3CCCCC3)cc2)cc1` [Compound 6], for which, at human MAO B, the inhibition at 1 µM is 50%. Also, the half-inhibitory concentration (IC50) at BuChE from equine serum was found to be 2160 ± 30 nM. Also, on AChE from electric eel, the inhibition at 10 µM is 24%.
`CC1CCCN(CCCCCCOc2ccccc2-c2ccccc2)C1` (centres unmarked) [Compound 15, 1-(6-([1,1′-Biphenyl]-2-yloxy)hexyl)-3-methylpiperidine Hydrogen Oxalate]: the inhibition at 1 µM on human MAO B was 16%. Further, the half-maximal inhibitory concentration (IC50) at BuChE from equine serum came out at 2100 ± 60 nM. Besides, the inhibition at 10 µM on AChE from electric eel was 24%. The compound further registered a Ki in test [2] of 23 nM.
As for `c1ccc(-c2cccc(OCCCCCN3CCCCCC3)c2)cc1` [Compound 20], on human MAO B, the inhibition at 1 µM was 14%. The IC50 on BuChE from equine serum was found to be 470 ± 10 nM. Further, the inhibition at 10 µM at AChE from electric eel came to 26%.
As for `CC1CCCN(CCCCCCOc2ccc(-c3ccccc3)cc2)C1` (centres unmarked) [Compound 13, 1-(6-([1,1′-Biphenyl]-4-yloxy)hexyl)-3-methylpiperidine Hydrogen Oxalate], at human MAO B, the inhibition at 1 µM was 20%. The IC50 on BuChE from equine serum was 950 nM. At AChE from electric eel, the IC50 amounted to 5020 ± 90 nM and the inhibition at 10 µM is above 50%. Also, in test [2] (setting [5]), the Ki is 146 ± 65.3 nM.
In the case of `c1ccc(-c2ccccc2OCCCCCCN2CCCCC2)cc1` [Compound 10, 1-(6-[1,1′-Biphenyl]-2-yloxy)hexyl)piperidine Hydrogen Oxalate], on human MAO B, the inhibition at 1 µM was 40%. Also, the 50% inhibitory concentration (IC50) on BuChE from equine serum came out at 1280 ± 20 nM. The inhibition at 10 µM on AChE from electric eel was found to be 8%. This compound also gave a Ki in test [2] of 221 nM.
Consider `c1ccc(-c2cccc(OCCCCCN3CCCCC3)c2)cc1` [Compound 7], for which the inhibition at 1 µM at human MAO B was 11%. For the same compound, the IC50 on BuChE from equine serum was 1290 ± 20 nM. For the same compound, the inhibition at 10 µM on AChE from electric eel amounted to 24%.
Consider `CCN(C)C(=O)Oc1cccc([C@H](C)N(C)C)c1` [Rivastigmine, rivastigmine, reference compound], for which the “latency time, retention trial” value was determined as 84.6 ± 20.1 s in test [3] (1.0 mg/kg i.p. before scopolamine 1 mg/kg) and 98.7 ± 17.9 s in test [3] (2.5 mg/kg i.p. before scopolamine 1 mg/kg). In test [3], the “latency times, acquisition trial” value was “neither scopolamine, nor 19 nor rivastigmine significantly affected latency times”. Also, in test [4], the IC50 is 370 nM.
For `CC1CCN(CCCCCOc2cccc(-c3ccccc3)c2)CC1` [Compound 16], the inhibition at 1 µM at human MAO B is 7%. In addition, the IC50 at BuChE from equine serum amounted to 1460 ± 30 nM. Further, the inhibition at 10 µM on AChE from electric eel came to 41%.

The term IC50 denotes the concentration needed to halve the response being measured. For orientation: Ki means a measure of affinity in units of concentration, obtained from inhibition or displacement. Usually Kd stands for the equilibrium constant for the complex coming apart.
